Results as given in PubChem BioAssay (NCI).
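Interpolation was linear, between the two tested concentrations surrounding the appropriate level; five concentrations were tested over 48 hours in 96-well plates. The concentration for full growth arrest is given as TGI.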

Legend:
Assay in all cases: DTP human tumour cell line panel, 48 h
[1] = system: A498 renal
[2] = system: ACHN renal
[3] = system: COLO 205 colon
[4] = system: HCT-15 colon
[5] = system: HOP-62 NSCLC
[6] = system: HS 578T breast
[7] = system: IGROV1 ovarian
[8] = system: NCI-H226 lung
[9] = system: NCI-H460 lung
[10] = system: NCI/ADR-RES ovarian
[11] = system: OVCAR-4 ovarian
[12] = system: OVCAR-5 ovarian
[13] = system: RPMI-8226 leukemia
[14] = system: SF-539 CNS
[15] = system: SK-MEL-2 melanoma
[16] = system: SK-MEL-28 melanoma
[17] = system: SNB-75 CNS
[18] = system: SR leukemia
[19] = system: T-47D breast
[20] = system: UACC-62 melanoma

SMILES | TGI [1] [µM] | TGI [2] [µM] | TGI [3] [µM] | TGI [4] [µM] | TGI [5] [µM] | TGI [6] [µM] | TGI [7] [µM] | TGI [8] [µM] | TGI [9] [µM] | TGI [10] [µM] | TGI [11] [µM] | TGI [12] [µM] | TGI [13] [µM] | TGI [14] [µM] | TGI [15] [µM] | TGI [16] [µM] | TGI [17] [µM] | TGI [18] [µM] | TGI [19] [µM] | TGI [20] [µM]
Cn1c(=O)c2c(nc3n(C)c(=O)c4ccccc4n23)n(C)c1=O | > 63.6 | 66.7 | > 100 | > 100 | > 84.3 | > 100 | > 100 | 58.7 | > 100 | > 100 | > 100 | > 100 | > 76.7 | > 100 | > 100 | > 100 | > 93.5 | 20.1 | > 100 | > 100
Cc1ccc(/C=N/NS(=O)(=O)c2ccc(/C=C3\NC(=O)NC3=O)cc2)cc1 | > 100 | > 100 | > 100 | > 100 | 91.1 | 81.6 | > 100 | > 100 | > 100 | > 100 | > 100 | > 100 | > 100 |  | > 100 | > 100 | 47.7 | > 100 | > 100 | > 100
O=c1c(=[n+]2ccc(=C([O-])c3ccccc3)cc2)/c(=N/S(=O)(=O)c2ccccc2)c(=O)c2ccccc12 | 32 | 25.3 | 27.2 | 28.2 | 22.7 | 18.7 | 23 | 30.8 | 36.2 | 24.3 | 25.9 | 33.7 | 18.9 | 25.9 | 8.63 | 8.8 | 27.7 | 13.4 | 12.9 | 3.73
CC1c2cc(c3c(c2O)CN([C@@H](C)C2CCCCC2)CO3)C(C)c2cc(c3c(c2O)CN([C@@H](C)C2CCCCC2)CO3)C(C)c2cc(c3c(c2O)CN([C@@H](C)C2CCCCC2)CO3)C(C)c2cc1c1c(c2O)CN([C@@H](C)C2CCCCC2)CO1 (stereo partly drawn) | 3.57 | 2.78 | 2.65 | 2.92 |  | 3.15 | 2.61 | 2.22 | 2.53 | 2.67 | 3.03 | 4.04 | 2.15 |  | 6.2 | 3.55 | 2.77 | 1.44 | 3.23 | 3.86
O=C1COCCN1C(=O)c1ccccc1Cl | > 100 | > 100 |  | > 100 | > 100 | > 100 | > 100 | > 100 | > 100 | > 100 | > 100 | > 100 | > 100 | > 100 |  | > 100 | > 100 | > 100 | > 100 | > 100
Cc1cc(O)c2c(c1)CC(O)C1=C2C(=O)c2c(O)ccc(OC3CC(O)C(OC4CC(OC5CCC(O)C(C)O5)C(O)C(C)O4)C(C)O3)c2C1=O (stereo not drawn) | 4.91 | 2.95 | 2.95 | 4.64 | 3.77 | 6.36 | 2.9 | 3.32 | 4.85 | 9.61 | 3.45 | 12.8 | 3.22 | 3.62 | 3.83 | 3.86 | 7.73 | 2.81 | 8.38 | 3.05
c1cc(NC2=NCCO2)c2c(c1)OCO2 | > 100 | > 100 | > 100 | > 100 | > 100 | > 100 | > 100 | > 100 | > 100 | > 100 | > 100 | > 100 | > 100 | > 100 | > 100 | > 100 |  | > 100 | > 100 | > 100
CN1CCc2cc(N)cc3c2C1Cc1ccc2c(c1-3)OCO2 (stereo not drawn) | > 100 | > 75.5 | > 86.9 | > 100 | > 100 | 82.2 | 58.5 | 83.2 | > 77.8 | > 83 | > 90.4 | > 77.7 | 46.9 | > 95 | > 100 | > 100 | > 91.5 | > 39.6 | > 100 | 70.5
OC(CC(O)(C(F)(F)F)C(F)(F)F)C(O)c1ccco1 (stereo not drawn) | > 10 | > 10 | > 10 | > 10 | > 10 | > 10 | > 10 | > 10 | > 10 | > 10 | > 10 |  | > 10 | > 10 | > 10 | > 10 | > 10 | > 10 | > 10 | > 10
c1cc(C[S+]2CCCC2)sc1C[S+]1CCCC1 | > 100 | > 100 | > 100 | > 100 | > 100 | > 100 | > 100 | > 100 | > 100 | > 100 | > 100 | > 100 | > 100 | > 100 |  |  | > 100 | > 100 | > 100 | > 100
COC(=O)[C@@H]1OC(C)(c2ccccc2)O[C@H]1C(=O)OC | > 100 | > 100 | > 100 | > 100 | > 100 | > 100 | > 100 | > 100 | > 100 | > 100 | > 100 | > 100 | > 100 | > 100 | > 100 | > 100 | > 100 | > 100 | > 100 | > 100
O=C(OCc1ccccc1)N1CCCc2c(n(S(=O)(=O)c3ccccc3)c3ccccc23)C1 | > 100 | > 100 | > 100 | > 100 | > 100 | > 100 | > 100 | > 100 | > 100 | > 100 | > 100 | > 100 | > 100 | > 100 | > 100 | > 100 |  | > 100 | > 100 | > 100
CC(C)NC(=O)OCc1c(COC(=O)NC(C)C)c(-c2ccc[n+](COC(=O)C(C)(C)C)c2)n2c1CCC2 | > 91.9 | > 100 | > 100 | > 100 | > 100 | > 100 | > 100 | > 100 | > 100 | > 100 | > 100 | > 100 | > 100 | > 100 | > 100 | > 100 | > 100 | > 100 | > 100 | > 100
O=C(O)C1=NN(c2ccc(S(=O)(=O)O)cc2)C2(C1)SCC(=O)N2c1nc2ccccc2s1 (stereo not drawn) | > 100 | > 100 | > 100 | > 100 | > 100 | > 100 | > 100 | > 100 | > 100 | > 100 | > 100 | > 100 | > 100 | > 100 | > 100 | > 100 | > 100 | > 100 | > 100 | > 100
O=c1[nH]c2cc([N+](=O)[O-])ccc2nc1/C=C(\O)c1ccc(Cl)cc1 | 39.6 | 31.4 | 78.5 | 28.4 |  | 44.8 | 26.6 | 40.6 | 24 | 28.4 | 41.1 | 46 | 65.2 | 23.1 | 36.4 | 22.9 | 55 | 38.9 | 30.8 | 30.3
Fc1ccc2c3c([nH]c2c1)CCNC3 | 65.9 | > 100 | > 100 | > 100 | > 100 | > 100 | > 100 | > 100 | > 100 | > 100 | > 100 | > 100 | > 100 | > 100 |  | > 100 | > 100 | > 100 | > 100 | > 100
COCN1C(=O)[C@@H]2CCCN2C(=O)c2ccc([N+](=O)[O-])cc21 | > 100 | > 100 | > 100 | > 100 | > 100 | > 100 | > 100 | > 100 | > 100 | > 100 | > 100 | > 100 | > 100 | > 100 | > 100 | > 100 | > 100 | > 100 | > 100 | > 100
CCN(CC)C(=S)SS(=O)(=O)c1ccc(NC(C)=O)cc1 | > 89.5 | > 88.8 | > 72.1 | > 100 | 42 | > 100 |  | > 100 | > 100 | 95.4 | 54.3 | 60.5 | 44 |  | > 100 | 39.2 | 97.2 | > 51.6 | > 100 | > 91.3
COc1cccc(Nc2nc(N)nc(N)c2N=O)c1 | 47.7 | 89 | 51.9 | 47 | > 100 | 82.4 | 94 | 90.9 | 29.1 | 52.5 | 78.5 | > 100 | 60.6 | 35.7 | > 100 | 69.8 | 91.1 | 45.5 | 24.3 | 38.8
O=c1cc(-c2cccc(OCc3ccccc3)c2)[nH]c2cc3c(cc12)OCO3 | 3.16 | 64.3 | > 22.7 |  | 9.98 | 3.02 | > 100 | 7.79 | 11.2 | 0.462 | > 27.8 | > 100 | 0.766 | 0.564 | 5.88 | > 100 |  | > 100 | > 100 | 12.3
CCOC(=O)c1ccc(Nc2nc3cc(C(F)(F)F)ccc3nc2C(=O)OCC)cc1 | > 100 | > 100 | > 100 | > 100 | 65.2 | > 100 | > 100 |  | > 100 | > 100 |  | > 100 | > 100 | > 100 |  | > 100 | > 100 | > 100 | > 100 | > 100
C#CCCOC(=O)c1ccccc1OC(C)=O | > 100 | > 100 | > 100 | > 100 | > 100 | > 100 | > 100 | > 100 | > 100 | > 100 | > 100 | > 100 | > 100 | > 100 | > 100 |  | > 100 | > 100 | > 100 | > 100
Cc1cn(C2CC(NC(=NCC3OC(n4cnc5c(N)ncnc54)CC3O)NC#N)C(CO)O2)c(=O)[nH]c1=O (stereo not drawn) | > 100 | > 100 | > 100 | > 100 | > 100 | > 100 | > 100 | > 100 | > 100 | > 100 | > 100 | > 100 |  | > 100 | > 100 | > 100 | > 100 | > 100 | > 100 | > 100
C=C(CN)CO[Si](C)(C)C(C)(C)C | > 100 | > 100 | > 100 | > 100 | > 100 | > 100 | > 100 | > 100 | > 100 | > 100 |  | > 100 | > 100 | > 100 | > 100 | > 100 | > 100 | > 100 | > 100 | > 100
